Results from PubChem BioAssay (NCI).
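Results reflect a 48-hour exposure of cells in 96-well plates to compound at five concentrations. The concentration for 50% growth inhibition is given as GI50. TGI denotes the concentration required for complete inhibition of growth.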

Columns and labels:
Test in all cases: NCI-60 cell line screen, 48 h
MCF7 breast = tested on: MCF7 breast
DU-145 prostate = tested on: DU-145 prostate
SK-MEL-2 melanoma = tested on: SK-MEL-2 melanoma
NCI-H522 lung = tested on: NCI-H522 lung
A498 renal = tested on: A498 renal
A549 NSCLC = tested on: A549 NSCLC
CAKI-1 renal = tested on: CAKI-1 renal
SK-OV-3 ovarian = tested on: SK-OV-3 ovarian
TK-10 renal = tested on: TK-10 renal
K-562 leukemia = tested on: K-562 leukemia
OVCAR-4 ovarian = tested on: OVCAR-4 ovarian
HCT-116 colon = tested on: HCT-116 colon
SN12C renal = tested on: SN12C renal
T-47D breast = tested on: T-47D breast
CCRF-CEM leukemia = tested on: CCRF-CEM leukemia
BT-549 breast = tested on: BT-549 breast
MDA-MB-435 = tested on: MDA-MB-435
SR leukemia = tested on: SR leukemia
SF-268 CNS = tested on: SF-268 CNS
PC-3 prostate = tested on: PC-3 prostate
HOP-62 NSCLC = tested on: HOP-62 NSCLC
SNB-19 CNS = tested on: SNB-19 CNS
OVCAR-3 ovarian = tested on: OVCAR-3 ovarian
HOP-92 NSCLC = tested on: HOP-92 NSCLC
HS 578T breast = tested on: HS 578T breast
HL-60(TB) leukemia = tested on: HL-60(TB) leukemia
SW-620 colon = tested on: SW-620 colon
LOX IMVI melanoma = tested on: LOX IMVI melanoma
SF-295 CNS = tested on: SF-295 CNS
UACC-62 melanoma = tested on: UACC-62 melanoma
ACHN renal = tested on: ACHN renal
U251 CNS = tested on: U251 CNS
RPMI-8226 leukemia = tested on: RPMI-8226 leukemia
NCI/ADR-RES ovarian = tested on: NCI/ADR-RES ovarian
KM12 colon = tested on: KM12 colon
SK-MEL-28 melanoma = tested on: SK-MEL-28 melanoma
SK-MEL-5 melanoma = tested on: SK-MEL-5 melanoma
NCI-H460 lung = tested on: NCI-H460 lung
UO-31 renal = tested on: UO-31 renal
NCI-H226 lung = tested on: NCI-H226 lung
SNB-75 CNS = tested on: SNB-75 CNS
COLO 205 colon = tested on: COLO 205 colon
OVCAR-8 ovarian = tested on: OVCAR-8 ovarian
HCC-2998 colon = tested on: HCC-2998 colon
HCT-15 colon = tested on: HCT-15 colon
786-0 renal = tested on: 786-0 renal
HT29 colon = tested on: HT29 colon
OVCAR-5 ovarian = tested on: OVCAR-5 ovarian
M14 melanoma = tested on: M14 melanoma
MDA-MB-231 breast = tested on: MDA-MB-231 breast
MALME-3M melanoma = tested on: MALME-3M melanoma
EKVX NSCLC = tested on: EKVX NSCLC
MOLT-4 leukemia = tested on: MOLT-4 leukemia
UACC-257 melanoma = tested on: UACC-257 melanoma
IGROV1 ovarian = tested on: IGROV1 ovarian
NCI-H23 lung = tested on: NCI-H23 lung
RXF 393 renal = tested on: RXF 393 renal
SF-539 CNS = tested on: SF-539 CNS
MDA-N = tested on: MDA-N

`O=C(/C=C/c1ccco1)c1ccc(Nc2nc(Nc3ccc(F)cc3)nc(Nc3ccc(F)cc3)n2)cc1` was tested, and the GI50 (MCF7 breast) was 3.74 µM, the TGI (MCF7 breast) was 25.9 µM and the GI50 (DU-145 prostate) was 28.8 µM. It also gave a TGI (DU-145 prostate) of over 100 µM, a GI50 (SK-MEL-2 melanoma) of 39 µM and a TGI (SK-MEL-2 melanoma) of over 100 µM. It also gave a GI50 (NCI-H522 lung) of 21.4 µM, a TGI (NCI-H522 lung) of 74.6 µM and a GI50 (A498 renal) of 7.28 µM. It also gave a TGI (A498 renal) of over 100 µM, a GI50 (A549 NSCLC) of 19.8 µM and a TGI (A549 NSCLC) of over 100 µM. It also gave a GI50 (CAKI-1 renal) of 26.7 µM, a TGI (CAKI-1 renal) of 60.5 µM and a GI50 (SK-OV-3 ovarian) of 32 µM. It also gave a TGI (SK-OV-3 ovarian) of over 100 µM, a GI50 (TK-10 renal) of 48.4 µM and a TGI (TK-10 renal) of over 100 µM. For the same compound, the GI50 (K-562 leukemia) was 10.8 µM, the TGI (K-562 leukemia) was 46 µM and the GI50 (OVCAR-4 ovarian) was 8.99 µM. The TGI (OVCAR-4 ovarian) was 36.2 µM, the GI50 (HCT-116 colon) was 21 µM and the TGI (HCT-116 colon) was over 100 µM. The GI50 (SN12C renal) was 54.8 µM, the TGI (SN12C renal) was over 100 µM and the GI50 (T-47D breast) was 11.4 µM. For the same compound, the TGI (T-47D breast) was 59.8 µM, the GI50 (CCRF-CEM leukemia) was 19 µM and the TGI (CCRF-CEM leukemia) was over 100 µM. The GI50 (BT-549 breast) was 4.9 µM, the TGI (BT-549 breast) was 26.8 µM and the GI50 (MDA-MB-435) was 16.6 µM. For the same compound, the TGI (MDA-MB-435) was 74.4 µM, the GI50 (SR leukemia) was 2.37 µM and the TGI (SR leukemia) was 5.84 µM. The GI50 (SF-268 CNS) was 7.49 µM, the TGI (SF-268 CNS) was 30.8 µM and the GI50 (PC-3 prostate) was 6.83 µM. For the same compound, the TGI (PC-3 prostate) was 21.9 µM, the GI50 (HOP-62 NSCLC) was 57.4 µM and the TGI (HOP-62 NSCLC) was over 100 µM. The GI50 (SNB-19 CNS) was 20.5 µM, the TGI (SNB-19 CNS) was 70.8 µM and the GI50 (OVCAR-3 ovarian) was 16.9 µM. For the same compound, the TGI (OVCAR-3 ovarian) was 45.9 µM, the GI50 (HOP-92 NSCLC) was 4.17 µM and the TGI (HOP-92 NSCLC) was 41.6 µM. For the same compound, the GI50 (HS 578T breast) was 22.8 µM, the TGI (HS 578T breast) was 65 µM and the GI50 (HL-60(TB) leukemia) was 17.5 µM. It also gave a TGI (HL-60(TB) leukemia) of 52.9 µM, a GI50 (SW-620 colon) of 19 µM and a TGI (SW-620 colon) of over 100 µM. It also gave a GI50 (LOX IMVI melanoma) of 17.6 µM, a TGI (LOX IMVI melanoma) of 45.3 µM and a GI50 (SF-295 CNS) of 23.8 µM. For the same compound, the TGI (SF-295 CNS) was 48.9 µM, the GI50 (UACC-62 melanoma) was over 100 µM and the TGI (UACC-62 melanoma) was over 100 µM. The GI50 (ACHN renal) was over 100 µM, the TGI (ACHN renal) was over 100 µM and the GI50 (U251 CNS) was 21.6 µM. For the same compound, the TGI (U251 CNS) was 42.2 µM, the GI50 (RPMI-8226 leukemia) was 8.99 µM and the TGI (RPMI-8226 leukemia) was over 100 µM. It also gave a GI50 (NCI/ADR-RES ovarian) of 15.1 µM, a TGI (NCI/ADR-RES ovarian) of 52.1 µM and a GI50 (KM12 colon) of 13.3 µM. It also gave a TGI (KM12 colon) of over 100 µM, a GI50 (SK-MEL-28 melanoma) of 18.3 µM and a TGI (SK-MEL-28 melanoma) of 44.3 µM. The GI50 (SK-MEL-5 melanoma) was 27 µM, the TGI (SK-MEL-5 melanoma) was over 100 µM and the GI50 (NCI-H460 lung) was 13.1 µM. It also gave a TGI (NCI-H460 lung) of 59 µM, a GI50 (UO-31 renal) of 14.7 µM and a TGI (UO-31 renal) of 37.2 µM. The GI50 (NCI-H226 lung) was 53.3 µM, the TGI (NCI-H226 lung) was over 100 µM and the GI50 (SNB-75 CNS) was 30.7 µM. For the same compound, the TGI (SNB-75 CNS) was 91.7 µM, the GI50 (COLO 205 colon) was 7.04 µM and the TGI (COLO 205 colon) was 26.1 µM. The GI50 (OVCAR-8 ovarian) was 17.4 µM, the TGI (OVCAR-8 ovarian) was 46.1 µM and the GI50 (HCC-2998 colon) was 36 µM. For the same compound, the TGI (HCC-2998 colon) was over 100 µM, the GI50 (HCT-15 colon) was 22.5 µM and the TGI (HCT-15 colon) was over 100 µM. It also gave a GI50 (786-0 renal) of 48.8 µM, a TGI (786-0 renal) of over 100 µM and a GI50 (HT29 colon) of 18.1 µM. It also gave a TGI (HT29 colon) of over 100 µM, a GI50 (OVCAR-5 ovarian) of 47.6 µM and a TGI (OVCAR-5 ovarian) of over 100 µM. For the same compound, the GI50 (M14 melanoma) was 12.8 µM, the TGI (M14 melanoma) was 30.5 µM and the GI50 (MDA-MB-231 breast) was 23.7 µM. The TGI (MDA-MB-231 breast) was over 100 µM, the GI50 (MALME-3M melanoma) was 43.7 µM and the TGI (MALME-3M melanoma) was over 100 µM. For the same compound, the GI50 (EKVX NSCLC) was 54.3 µM, the TGI (EKVX NSCLC) was over 100 µM and the GI50 (MOLT-4 leukemia) was 11.9 µM. It also gave a TGI (MOLT-4 leukemia) of 48.8 µM, a GI50 (UACC-257 melanoma) of over 100 µM and a TGI (UACC-257 melanoma) of over 100 µM. For the same compound, the GI50 (IGROV1 ovarian) was 10.7 µM, the TGI (IGROV1 ovarian) was 29.6 µM and the GI50 (NCI-H23 lung) was 16.4 µM. For the same compound, the TGI (NCI-H23 lung) was 37 µM, the GI50 (RXF 393 renal) was 41.4 µM and the TGI (RXF 393 renal) was over 100 µM. It also gave a GI50 (SF-539 CNS) of 24.8 µM and a TGI (SF-539 CNS) of 63.5 µM.

In the case of `CC(C)(C)C1=C(Br)C(OC(=O)C(F)(F)F)(C(C)(C)C)OP1(=O)c1ccccc1` (configuration not stated), the TGI (MDA-N) is reported as over 100 µM, the TGI (MCF7 breast) is reported as over 100 µM and the TGI (DU-145 prostate) is reported as over 100 µM. It also gave a TGI (SK-MEL-2 melanoma) of over 100 µM, a TGI (NCI-H522 lung) of over 100 µM and a TGI (A498 renal) of over 100 µM. The TGI (A549 NSCLC) was over 100 µM, the TGI (CAKI-1 renal) was 4.97 µM and the TGI (SK-OV-3 ovarian) was over 100 µM. It also gave a TGI (TK-10 renal) of over 100 µM, a TGI (K-562 leukemia) of over 100 µM and a TGI (OVCAR-4 ovarian) of over 100 µM. It also gave a TGI (HCT-116 colon) of over 100 µM, a TGI (SN12C renal) of over 100 µM and a TGI (T-47D breast) of over 100 µM. The TGI (MDA-MB-435) was over 100 µM, the TGI (SF-268 CNS) was over 100 µM and the TGI (PC-3 prostate) was 93.5 µM. It also gave a TGI (HOP-62 NSCLC) of 76.8 µM, a TGI (SNB-19 CNS) of over 100 µM and a TGI (OVCAR-3 ovarian) of over 100 µM. The TGI (HOP-92 NSCLC) was 92.5 µM, the TGI (HS 578T breast) was 65.5 µM and the TGI (HL-60(TB) leukemia) was over 100 µM. The TGI (LOX IMVI melanoma) was over 100 µM, the TGI (SF-295 CNS) was over 100 µM and the TGI (UACC-62 melanoma) was 95.4 µM. The TGI (ACHN renal) was over 100 µM, the TGI (U251 CNS) was over 100 µM and the TGI (NCI/ADR-RES ovarian) was over 100 µM. It also gave a TGI (KM12 colon) of over 100 µM, a TGI (SK-MEL-28 melanoma) of over 100 µM and a TGI (SK-MEL-5 melanoma) of over 100 µM. The TGI (NCI-H460 lung) was over 100 µM, the TGI (UO-31 renal) was over 100 µM and the TGI (NCI-H226 lung) was over 100 µM. For the same compound, the TGI (SNB-75 CNS) was over 100 µM, the TGI (COLO 205 colon) was 34 µM and the TGI (OVCAR-8 ovarian) was over 100 µM. It also gave a TGI (HCC-2998 colon) of over 100 µM, a TGI (HCT-15 colon) of over 100 µM and a TGI (786-0 renal) of over 100 µM. The TGI (HT29 colon) was over 100 µM, the TGI (OVCAR-5 ovarian) was over 100 µM and the TGI (M14 melanoma) was over 100 µM. The TGI (MALME-3M melanoma) was over 100 µM, the TGI (EKVX NSCLC) was 69 µM and the TGI (UACC-257 melanoma) was over 100 µM. For the same compound, the TGI (IGROV1 ovarian) was over 100 µM, the TGI (NCI-H23 lung) was over 100 µM and the TGI (SF-539 CNS) was over 100 µM.
